US11242511B2, “Cytoplasmic protein complex comprising a kinase substrate sensor, cells comprising the complex, and associated detection methods” (VIB VZW, priority 2011, dated 2022)

What was measured:
Tyk2(R1027A) = experiment: Imidazole-inducible version of the assay, Tyk2(R1027A)-RTp66 fusion, luciferase reporter; type: cell-based, human; conditions: HEK293-T cells, 0.5-50 mM imidazole
Method: (§1) Transfections were carried out using a standard calcium phosphate method. HEK293-T cells were seeded in black tissue-culture treated 96-well plates at 10,000 cells/well in 100 μl culture medium (DMEM supplemented with 10% FCS). Twenty-four hours later, plasmid DNA mixes were prepared that contained plasmids encoding fusion proteins with the first and second interacting proteins and reporter plasmids. The DNA was supplemented with 10 μl 2.5M CaCl2) and double distilled water to a final volume of 100 μl. This mixture was added dropwise to 100 μl 2×HeBS buffer (280 mM NaCl, 1.5 mM Na2HPO4, 50 mM Hepes; pH 7.05) while vigorously vortexing. After incubation at room temperature for 15 minutes to allow DNA precipitates to form, the solution was added to the cells at […] Cells were incubated at 37° C., 8% CO2. Forty-eight hours after transfection, luciferase activity was measured using the Luciferase Assay System kit (Promega) on a TopCount luminometer (Perkin-Elmer). Each transfection was done in triplicate and the average of the luciferase activity readings was used in the calculations.
(§2) A Nutlin-3 (Sigma) stock solution of 20 mM in DMSO was diluted in culture medium and added to the cells 24 hours after transfection. Imidazole (Sigma) diluted in culture medium was added to the cells 24 hours after transfection. […]

Tyk2(C) = experiment: Imidazole treatment of the constitutive Tyk2(C)-RTp66 fusion assay, luciferase reporter; type: cell-based, human; conditions: HEK293-T cells, pMet7-HA-Tyk2(C)-RTp66; 0.5-50 mM imidazole
Method: as §1, §2

[1] = biological target: T1, EFHA1 (which binds to Tyk2(C) itself) (Homo sapiens, UniProt Q8IYU8); experiment: Tyk2(C) kinase substrate sensor luciferase reporter assay, EFHA1 control interaction; type: cell-based; conditions: HEK293-T cells, pMet7-HA-Tyk2(C)-p53(N)+pMG1-EFHA1; 0-3333 nM; FIG. 4
T1 construct: expressed in transfected cells; host or cells: HEK293-T
T1 sequence (Q8IYU8 1-434): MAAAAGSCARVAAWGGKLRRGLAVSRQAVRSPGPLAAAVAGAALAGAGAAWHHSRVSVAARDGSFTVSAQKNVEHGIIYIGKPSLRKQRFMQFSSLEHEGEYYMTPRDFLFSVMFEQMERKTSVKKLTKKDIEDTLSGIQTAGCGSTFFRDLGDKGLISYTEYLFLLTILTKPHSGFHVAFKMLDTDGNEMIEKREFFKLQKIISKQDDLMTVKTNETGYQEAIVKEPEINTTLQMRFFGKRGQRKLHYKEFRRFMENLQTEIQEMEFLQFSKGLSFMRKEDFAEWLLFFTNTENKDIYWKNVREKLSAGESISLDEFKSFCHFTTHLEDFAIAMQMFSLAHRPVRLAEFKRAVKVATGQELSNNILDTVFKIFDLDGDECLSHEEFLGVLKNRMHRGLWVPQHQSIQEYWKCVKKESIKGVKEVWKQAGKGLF

| Structure (SMILES) | background signal, Tyk2 fusion construct with unfused gp130 fragment (pMG1) (Tyk2(R1027A); Tyk2 fusion construct + pMG1) | maximal imidazole-dependent induction of the signal (interaction between HIV RTp66 and RTp51) compared to untreated cells (Tyk2(R1027A); pMet7-HA-Tyk2(R1027A)-RTp66+pMG2-RTp51, added 24 hours after transfection) [fold] | imidazole regulation of the signal in cells transfected with the Tyk2(C) fusion (Tyk2(C)) | signal corresponding to the interaction with EFHA1 [1] |
| --- | --- | --- | --- | --- |
| c1c[nH]cn1 [imidazole] | unaffected | 36 | did not exhibit any imidazole regulation |  |
| COc1ccc(C2=N[C@@H](c3ccc(Cl)cc3)[C@@H](c3ccc(Cl)cc3)N2C(=O)N2CCNC(=O)C2)c(OC(C)C)c1 [Nutlin-3] |  |  |  | unaffected |
